The experiment deals with C57BL/6J male mice. As to the kind of experiment: Crossover peptide injection trial in mice (food intake and body weight). It counts as in vivo. To be noted: intraperitoneal injection at 5pm, change measured 16 h after injection, C57BL/6J male mice at 14 weeks, compared to vehicle injection. Here is the method: FIG. 6: Analysis of erusiolin producing cells, secretion in response to food and effects of erusiolin injection in mice. […] Staining is consistent with erusiolin positivity in rare enteroendocrine cell populations. […] Each line is one participant. […] Animals were randomised to the sequence of treatment days that were random in order, with washout days between injection treatment days. Peptides were injected at 5pm before the night phase and the change in body weight and food intake measured after 16 h. (n=14) ***P<0.001,*P<0.05. Erusiolin refers to the synthetic peptide of sequence APFLLEDPANQFLRL (SEQ ID NO: 2), DPP4-cleaved refers to the synthetic peptide of sequence FLLEDPANQFLRL (SEQ ID NO: 3).
In these experiments “erusiolin” refers to the synthetic peptide of sequence APFLLEDPANQFLRL (SEQ ID NO: 2), “DPP4-cleaved” refers to the synthetic peptide of sequence FLLEDPANQFLRL (SEQ ID NO: 3). These peptides were synthesised and purified as the TFA-salt by a commercial supplier (Genscript), which generated 10 mg of each peptide at >90% purity. TFA removal and formation of the HCL-peptide salt was performed by freeze-drying the peptide solution (in LC-grade H2O) for 16 h and resuspension in 500 uL of 10 mM HC1 in LC-grade H2O. This solution was then freeze-dried for 16 h. A total of three rounds of 10 mM HC1 resuspension and freeze-drying for 16 h were performed. After the final drying step, the peptides were resuspended in LC-grade H2O. The peptide solutions were analysed for TFA contamination and determination of the peptide concentration using FT-IR spectroscopy. No TFA contamination was observed and the final peptide concentrations were 5 mg/mL in LC-grade H2O. Peptides were diluted in vehicle (1 mg/ml mouse albumin in PBS) before injection.
C57BL/6J male mice at 14 weeks of age were treated with either vehicle, erusiolin, or the DPP4-cleaved peptide in a crossover trial study using intraperitoneal injection of the peptides. Each mouse was randomly allocated to a sequence of treatments. Each sequence had treatments in a random order. One treatment was performed per mouse per day and injections were at 5pm just before the night feeding period. Between each treatment day a washout day was included where no injection was performed to allow the previous days treatment to be degraded and minimise confounding effects. The food intake and body weight of each animal was measured just prior to injection and again 16 h after injection. This enable the calculation of the mass delta (change) for food intake and body mass. A repeated-measures one-way ANOVA was used to determine significance between the vehicle negative control treatment and the other treatments. Statistical analyses were performed using R (version 3.4.3) and processed data was plotted using Tableau (version 10.0.2). […]

In the case of APFLLEDPANQFLRL [erusiolin], the body weight result is listed as “significant decrease” and the food intake entry was “significant decrease”.

In the case of FLLEDPANQFLRL [DPP4-cleaved], the body weight entry is listed as “not significant or less significant” and the food intake entry is on record as “not significant or less significant”.

For the origin of these results see patent US20230041692A1, “NOVEL PEPTIDE HORMONES” (THE UNIVERSITY OF SYDNEY, priority 2019, published 2023).
